Measurements as given in patent US8912124B2, “Use of derivatives of (1-cyanocyclopropyl)phenylphosphinic acid, esters thereof and/or salts thereof for enhancing tolerance in plants to abiotic stress” (Bayer Cropscience AG, priority 2010, dated 2014).

What was measured:
Type in all cases: in vivo
BRSNS=Brassica napus = experiment: Drought stress test on crop plants, spray application, efficacy (EF) on Brassica napus; details: percentage reduction in intensity of damage, mean of three results
Procedure: (§1) Seeds of monocotyledonous and dicotyledonous crop plants were placed in sandy loam in wood-fiber pots, covered with soil and cultivated in a greenhouse under good growth conditions. The test plants were treated at the early leaf stage (BBCH10-BBCH13). To ensure uniform water supply before commencement of stress, the potted plants were supplied with the maximum amount of water immediately beforehand by dam irrigation and, after application, transferred in plastic inserts in order to prevent subsequent, excessively rapid drying. The inventive compounds, formulated in the form of wettable powders (WP), wettable granules (WG), suspension concentrates (SC) or emulsion concentrates (EC), were sprayed onto the green parts of the plants as an aqueous suspension at an equivalent water application rate of 600 I/ha with addition of 0.2% wetting agent (agrotin). Substance application was followed immediately by stress treatment of the plants (cold or drought stress). For cold stress treatment, the plants are kept under the following controlled conditions: • “day”: 12 hours with illumination at 8° C. • “night”: 12 hours without illumination at 1° C.
(§2) Drought stress is induced by gradual drying out under the following conditions: • “day”: 14 hours with illumination at 26° C. • “night”: 10 hours without illumination at 18° C.
The duration of the respective stress phases was guided mainly by the state of the untreated, stressed control plants and thus varied from crop to crop. It was ended (by re-irrigating or transfer to a greenhouse with good growth conditions) as soon as irreversible damage was observed on the untreated, stressed control plants. In the case of dicotyledonous crops, for example oilseed rape and soya, the duration of the drought stress phase varied between 3 and 5 days, in the case of monocotyledonous crops, for example wheat, barley or corn, between 6 and 10 days. The duration of the cold stress phase varied between 12 and 14 days.
The end of the stress phase was followed by an approx. 5-7-day recovery phase, during which the plants were once again kept under good growth conditions in a greenhouse. In order to rule out any influence of the effects observed by any fungicidal action of the test compounds, it was additionally ensured that the tests proceed without fungal infection and without infection pressure.
After the recovery phase had ended, the intensities of damage were rated in visual comparison to untreated, unstressed controls of the same age (in the case of drought stress) or the same growth stage (in the case of cold stress). The intensity of damage was first assessed as a percentage (100%=plants have died, 0%=like control plants). These values were then used to calculate the efficacy of the test compounds (=percentage reduction in the intensity of damage as a result of substance application) by the following formula: […]
DVus: damage value of the untreated, stressed control
DVts: damage value of the plants treated with test compound
Tables A.1, A.2 and A.3 show the efficacies of selected inventive compounds of the formula (I) and of the formula (II) on different crop plants (BRSNS=Brassica napus (A.1;) TRZAS=Triticum aestivum (A.2); ZEAMX=Zea mays (A.3) under drought stress.
The values stated each represent mean values from three results of the same test.

ZEAMX=Zea mays = experiment: Drought stress test on crop plants, spray application, efficacy (EF) on Zea mays; details: percentage reduction in intensity of damage, mean of three results
Procedure: as §1, §2
The duration of the respective stress phases was guided mainly by the state of the untreated, stressed control plants and thus varied from crop to crop. It was ended (by re-irrigating or transfer to a greenhouse with good growth conditions) as soon as irreversible damage was observed on the untreated, stressed control plants. […]
(§3) After the recovery phase had ended, the intensities of damage were rated in visual comparison to untreated, unstressed controls of the same age (in the case of drought stress) or the same growth stage (in the case of cold stress). The intensity of damage was first assessed as a percentage (100%=plants have died, 0%=like control plants). […]

TRZAS=Triticum aestivum = experiment: Drought stress test on crop plants, spray application, efficacy (EF) on Triticum aestivum; details: dosage 25 g/ha, percentage reduction in intensity of damage, mean of three results
Procedure: Seeds of monocotyledonous and dicotyledonous crop plants were placed in sandy loam in wood-fiber pots, covered with soil and cultivated in a greenhouse under good growth conditions. The test plants were treated at the early leaf stage (BBCH10-BBCH13). To ensure uniform water supply before commencement of stress, the potted plants were supplied with the maximum amount of water immediately beforehand by dam irrigation and, after application, transferred in plastic inserts in order to prevent subsequent, excessively rapid drying. The inventive compounds, formulated in the form of wettable powders (WP), wettable granules (WG), suspension concentrates (SC) or emulsion concentrates (EC), were sprayed onto the green parts of the plants as an aqueous suspension at an equivalent water application rate of 600 I/ha with addition of 0.2% wetting agent (agrotin). Substance application was followed immediately by stress treatment of the plants (cold or drought stress). […]
as §3

`CCOC(=O)c1cccc(P(=O)(OCC)C2(C#N)CC2)c1` (stereo not shown) [Compound 2-37] was tested, and the “EF (BRSNS)” value (BRSNS=Brassica napus; dosage 25 g/ha) was greater than 5%.
`CCCOP(=O)(c1ccccc1Cl)C1(C#N)CC1` (stereo not shown) [Compound 2-159] was tested, and the “EF (BRSNS)” value (BRSNS=Brassica napus; dosage 25 g/ha) was greater than 5%.
`CCOP(=O)(c1cccc(C)c1)C1(C#N)CC1` (stereo not shown) [Compound 2-16] was tested, and the “EF (BRSNS)” value (BRSNS=Brassica napus; dosage 250 g/ha) was greater than 5%.
For `CCCOP(=O)(c1ccccc1)C1(C#N)CC1` (stereo not shown) [Compound 2-130], the “EF (BRSNS)” value (BRSNS=Brassica napus; dosage 25 g/ha) was greater than 5% and the “EF (ZEAMX)” value (ZEAMX=Zea mays; dosage 25 g/ha) was greater than 5%.
`N#CC1(P(=O)(OCc2ccccc2)c2ccccc2)CC1` (stereo not shown) [Compound 2-155] was tested, and the “EF (BRSNS)” value (BRSNS=Brassica napus; dosage 25 g/ha) was greater than 5% and the “EF (ZEAMX)” value (ZEAMX=Zea mays; dosage 25 g/ha) was greater than 5%.
For `CCOP(=O)(c1cc(Cl)cc(Cl)c1)C1(C#N)CC1` (stereo not shown) [Compound 2-111], the “EF (BRSNS)” value (BRSNS=Brassica napus; dosage 25 g/ha) was greater than 5%.
In the case of `CCOP(=O)(c1cccc(OC)c1)C1(C#N)CC1` (stereo not shown) [Compound 2-19], the “EF (BRSNS)” value (BRSNS=Brassica napus; dosage 25 g/ha) was greater than 5%.
For `CCOP(=O)(c1cccc(C(=O)O)c1)C1(C#N)CC1` (stereo not shown) [Compound 2-34], the “EF (BRSNS)” value (BRSNS=Brassica napus; dosage 25 g/ha) was greater than 5%.
With `CCOP(=O)(c1ccccc1)C1(C#N)CC1` (stereo not shown) [Compound 2-2, ethyl (1-cyanocyclopropyl)phenylphosphinate] the “EF (BRSNS)” value (BRSNS=Brassica napus; dosage 25 g/ha) was greater than 5% and the “EF (TRZAS)” value (TRZAS=Triticum aestivum) was greater than 5%.
In the case of `CCCOP(=O)(c1ccccc1F)C1(C#N)CC1` (stereo not shown) [Compound 2-158], the “EF (BRSNS)” value (BRSNS=Brassica napus; dosage 25 g/ha) was greater than 5% and the “EF (ZEAMX)” value (ZEAMX=Zea mays; dosage 250 g/ha) was greater than 5%.
With `N#CC1(P(=O)(OC2CCCCC2)c2ccccc2)CC1` (stereo not shown) [Compound 2-142] the “EF (BRSNS)” value (BRSNS=Brassica napus; dosage 25 g/ha) was greater than 5%.
With `CC(C)COP(=O)(c1ccccc1)C1(C#N)CC1` (stereo not shown) [Compound 2-135] the “EF (BRSNS)” value (BRSNS=Brassica napus; dosage 25 g/ha) was greater than 5% and the “EF (TRZAS)” value (TRZAS=Triticum aestivum) was greater than 5%.
For `CCOP(=O)(c1ccc(C)cc1)C1(C#N)CC1` (stereo not shown) [Compound 2-17], the “EF (BRSNS)” value (BRSNS=Brassica napus; dosage 250 g/ha) was greater than 5%.
`CCOP(=O)(c1ccccc1OC)C1(C#N)CC1` (stereo not shown) [Compound 2-18] was tested, and the “EF (BRSNS)” value (BRSNS=Brassica napus; dosage 25 g/ha) was greater than 5%.
